The subject of the test is Phakopsora pachyrhizi. The test is described as follows: Phakopsora pachyrhizi test in soybean (greenhouse, preventive activity, disease severity rating). The settings on record: preventive spray on soybean, compared to the untreated check. Format: in vivo. How it is done: To test the preventive activity of compounds, healthy young soybean plants, raised in the greenhouse, were sprayed with the active compound solution at the stated application rates inside spray cabinets using hallowcone nozzles. One day after treatment, the plants were inoculated with a suspension containing 2.1×10^6 Phakopsora pachyrhizi spores. The inoculated plants were then kept in the greenhouse chamber at 25° C. temperature and 90% relative humidity for disease expression. A visual assessment of the compound's performance was carried out by rating the disease severity (0-100% scale) on treated plants on 3, 7, 10 and 15 days after application. Efficacy (% control) of the compounds was calculated by comparing the disease rating in the treatment with the one of the untreated control. The treated plants were also assessed for plant compatibility by recording symptoms like necrosis, chlorosis and stunting.

What is called pest or weed control is how far the test organism was held down.

Structures can show the parent of a compound that is named as a salt.

For `CC(C)(C)OC(=O)N1CC[C@H](Oc2ccc(-c3noc(C(F)(F)F)n3)c(F)c2)C1` [Compound 62, tert-butyl (S)-3-(3-fluoro-4-(5-(trifluoromethyl)-1,2,4-oxadiazol-3-yl)phenoxy)pyrrolidine-1-carboxylate], the pest or weed control at 500 ppm is over 70%.
For `O=C(c1ccccc1F)N1CC[C@@H](Oc2ccc(-c3noc(C(F)(F)F)n3)cn2)C1` [Compound 74, (R)-(2-fluorophenyl)(3-((5-(5-(trifluoromethyl)-1,2,4-oxadiazol-3-yl)pyridin-2-yl)oxy)pyrrolidin-1-yl)methanone] the value was over 70%; for `O=C(c1ccc(Cl)cc1)N1CC[C@H](Oc2ccc(-c3noc(C(F)(F)F)n3)cc2)C1` [Compound 44, (S)-(4-chlorophenyl)(3-(4-(5-(trifluoromethyl)-1,2,4-oxadiazol-3-yl)phenoxy)pyrrolidin-1-yl)methanone], over 70%.
The figure for `O=S(=O)(c1cccc(Cl)c1)N1CC[C@H](Oc2ccc(-c3noc(C(F)(F)F)n3)cn2)C1` [Compound 108, (S)-3-(6-((1-((3-chlorophenyl)sulfonyl)pyrrolidin-3-yl)oxy)pyridin-3-yl)-5-(trifluoromethyl)-1,2,4-oxadiazole] is over 70%; for `C[N+]1(C)CC[C@H](Oc2ccc(-c3noc(C(F)(F)F)n3)cn2)C1` [Compound 51, (S)-1,1-dimethyl-3-((5-(5-(trifluoromethyl)-1,2,4-oxadiazol-3-yl)pyridin-2-yl)oxy)pyrrolidin-1-ium 2,2,2-trifluoroacetate] it is over 70%.
The figure for `O=C(c1cccc(Br)c1)N1CC(Oc2ccc(-c3noc(C(F)(F)F)n3)cc2)C1` [Compound 16, (3-bromophenyl)(3-(4-(5-(trifluoromethyl)-1,2,4-oxadiazol-3-yl)phenoxy)azetidin-1-yl)methanone] is over 70%.
In turn, `O=C(c1cncnc1)N1CC[C@H](Oc2ccc(-c3noc(C(F)(F)F)n3)cc2)C1` [Compound 57, (S)-pyrimidin-5-yl(3-(4-(5-(trifluoromethyl)-1,2,4-oxadiazol-3-yl)phenoxy)pyrrolidin-1-yl)methanone] registered a pest or weed control at 500 ppm of over 70%.
For `O=S(=O)(Cc1ccccc1)N1CC(Oc2ccc(-c3noc(C(F)(F)F)n3)cc2)C1` [Compound 22, 3-(4-((1-(benzylsulfonyl)azetidin-3-yl)oxy)phenyl)-5-(trifluoromethyl)-1,2,4-oxadiazole] the value was over 70%; for `CC(C)(C)OC(=O)N1CCC(Oc2ccc(-c3noc(C(F)(F)F)n3)cc2)CC1` [Compound 84, tert-butyl 4-(4-(5-(trifluoromethyl)-1,2,4-oxadiazol-3-yl)phenoxy)piperidine-1-carboxylate], over 70%; for `O=S(=O)(c1ccc(F)cc1F)N1CC[C@H](Oc2ccc(-c3noc(C(F)(F)F)n3)cc2)C1` [Compound 42, (S)-3-(4-((1-((2,4-difluorophenyl)sulfonyl)pyrrolidin-3-yl)oxy)phenyl)-5-(trifluoromethyl)-1,2,4-oxadiazole], over 70%.
`CN(c1ccc(-c2noc(C(F)(F)F)n2)cc1)C1CN(C(=O)C(C)(C)C)C1` [Compound 129, 2,2-dimethyl-1-(3-(methyl(4-(5-(trifluoromethyl)-1,2,4-oxadiazol-3-yl)phenyl)amino)azetidin-1-yl)propan-1-one] showed a pest or weed control at 500 ppm of over 70%.
For `O=C(Nc1ccccc1F)N1CC[C@H](Oc2ccc(-c3noc(C(F)(F)F)n3)cc2)C1` [Compound 37, (S)—N-(2-fluorophenyl)-3-(4-(5-(trifluoromethyl)-1,2,4-oxadiazol-3-yl)phenoxy)pyrrolidine-1-carboxamide] the value was over 70%.
For `CC(C)S(=O)(=O)N1CC[C@H](Oc2ccc(-c3noc(C(F)(F)F)n3)cn2)C1` [Compound 155, (S)-3-(6-((1-(isopropylsulfonyl)pyrrolidin-3-yl)oxy)pyridin-3-yl)-5-(trifluoromethyl)-1,2,4-oxadiazole], the pest or weed control at 500 ppm was over 70%.
In the case of `CS(=O)(=O)N1CC[C@H](Oc2ccc(-c3noc(C(F)(F)F)n3)cn2)C1` [Compound 111, (S)-3-(6-((1-(methylsulfonyl)pyrrolidin-3-yl)oxy)pyridin-3-yl)-5-(trifluoromethyl)-1,2,4-oxadiazole], the pest or weed control at 500 ppm is over 70%.
For `CN(c1ccc(-c2noc(C(F)(F)F)n2)cc1)C1CN(C(=O)OC(C)(C)C)C1` [Compound 80, tert-butyl 3-(methyl(4-(5-(trifluoromethyl)-1,2,4-oxadiazol-3-yl)phenyl)amino)azetidine-1-carboxylate] the value was over 70%; for `O=S(=O)(C1CC1)N1CC[C@H](Oc2ccc(-c3noc(C(F)(F)F)n3)cc2)C1` [Compound 41, (S)-3-(4-((1-(cyclopropylsulfonyl)pyrrolidin-3-yl)oxy)phenyl)-5-(trifluoromethyl)-1,2,4-oxadiazole], over 70%; for `O=C(c1ccccc1F)N1CC[C@H](Oc2ccc(-c3noc(C(F)(F)F)n3)cc2F)C1` [Compound 52, (S)-(3-(2-fluoro-4-(5-(trifluoromethyl)-1,2,4-oxadiazol-3-yl)phenoxy)pyrrolidin-1-yl)(2-fluorophenyl)methanone], over 70%.
For `CC(C)(C)OC(=O)N1CC(N(c2ccc(-c3noc(C(F)(F)F)n3)cc2)c2ccc(-c3noc(C(F)(F)F)n3)cc2)C1` [Compound 82, tert-butyl 3-(bis(4-(5-(trifluoromethyl)-1,2,4-oxadiazol-3-yl)phenyl)amino)azetidine-1-carboxylate] the value was over 70%; for `CN(c1ccc(-c2noc(C(F)(F)F)n2)cc1)C1CN(C(=O)c2ccc(F)cc2)C1` [Compound 124, (4-fluorophenyl)(3-(methyl(4-(5-(trifluoromethyl)-1,2,4-oxadiazol-3-yl)phenyl)amino)azetidin-1-yl)methanone], over 70%.
In turn, `Cc1ccsc1S(=O)(=O)N1CC[C@H](Oc2ccc(-c3noc(C(F)(F)F)n3)cc2)C1` [Compound 147, (S)-3-(4-((1-((3-methylthiophen-2-yl)sulfonyl)pyrrolidin-3-yl)oxy)phenyl)-5-(trifluoromethyl)-1,2,4-oxadiazole] registered a pest or weed control at 500 ppm of over 70%.
The figure for `CCCS(=O)(=O)N1CC[C@H](Oc2ccc(-c3noc(C(F)(F)F)n3)cn2)C1` [Compound 110, (S)-3-(6-((1-(propylsulfonyl)pyrrolidin-3-yl)oxy)pyridin-3-yl)-5-(trifluoromethyl)-1,2,4-oxadiazole] is over 70%; for `O=C(c1ccccc1F)N1CC(Oc2ccc(-c3noc(C(F)(F)F)n3)cc2)C1` [Compound 20, (2-fluorophenyl)(3-(4-(5-(trifluoromethyl)-1,2,4-oxadiazol-3-yl)phenoxy)azetidin-1-yl)methanone] it is over 70%; for `COc1ccc(C(=O)N2CC[C@H](Oc3ccc(-c4noc(C(F)(F)F)n4)cc3F)C2)cc1` [Compound 53, (S)-(3-(2-fluoro-4-(5-(trifluoromethyl)-1,2,4-oxadiazol-3-yl)phenoxy)pyrrolidin-1-yl)(4-methoxyphenyl)methanone] it is over 70%.
The figure for `Cn1cnc(S(=O)(=O)N2CC[C@H](Oc3ccc(-c4noc(C(F)(F)F)n4)cc3)C2)c1` [Compound 148, (S)-3-(4-((1-((1-methyl-1H-imidazol-4-yl)sulfonyl)pyrrolidin-3-yl)oxy)phenyl)-5-(trifluoromethyl)-1,2,4-oxadiazole] is over 70%.
For `O=C(c1cccc(F)c1)N1CC[C@H](Oc2ccc(-c3noc(C(F)(F)F)n3)nc2)C1` [Compound 30, (S)-(3-fluorophenyl)(3-((6-(5-(trifluoromethyl)-1,2,4-oxadiazol-3-yl)pyridin-3-yl)oxy)pyrrolidin-1-yl)methanone] the value was over 70%; for `FC(F)(F)c1nc(-c2cccc(OC3CCNC3)c2)no1` (stereo not shown) [Compound 128, 3-(3-(pyrrolidin-3-yloxy)phenyl)-5-(trifluoromethyl)-1,2,4-oxadiazole hydrochloride], over 70%; for `O=C(c1cccc(F)c1)N1CC[C@H](Oc2ccc(-c3noc(C(F)(F)F)n3)cc2F)C1` [Compound 54, (S)-(3-(2-fluoro-4-(5-(trifluoromethyl)-1,2,4-oxadiazol-3-yl)phenoxy)pyrrolidin-1-yl)(3-fluorophenyl)methanone], over 70%.
`O=S(=O)(c1ccccc1)N1CC[C@H](Oc2ccc(-c3noc(C(F)(F)F)n3)cc2)C1` [Compound 25, (S)-3-(4-((1-(phenylsulfonyl)pyrrolidin-3-yl)oxy)phenyl)-5-(trifluoromethyl)-1,2,4-oxadiazole] yielded a pest or weed control at 500 ppm of over 70%.
`CC(C)(C)OC(=O)N1CC[C@H](Oc2ccc(-c3noc(C(F)(F)F)n3)cc2)C1` [Compound 23, tert-butyl (S)-3-(4-(5-(trifluoromethyl)-1,2,4-oxadiazol-3-yl)phenoxy)pyrrolidine-1-carboxylate] showed a pest or weed control at 500 ppm of over 70%.
The figure for `O=S(=O)(c1ccccc1F)N1CC[C@H](Oc2ccc(-c3noc(C(F)(F)F)n3)cn2)C1` [Compound 152, (S)-3-(6-((1-((2-fluorophenyl)sulfonyl)pyrrolidin-3-yl)oxy)pyridin-3-yl)-5-(trifluoromethyl)-1,2,4-oxadiazole] is over 70%; for `O=S(=O)(c1cccc(Cl)c1)N1CC[C@H](Oc2ccc(-c3noc(C(F)(F)F)n3)cc2)C1` [Compound 122, (S)-3-(4-((1-((3-chlorophenyl)sulfonyl)pyrrolidin-3-yl)oxy)phenyl)-5-(trifluoromethyl)-1,2,4-oxadiazole] it is over 70%.

These data come from patent US20210392895A1, “NOVEL OXADIAZOLES” (PI INDUSTRIES LIMITED, priority 2018, published 2021).
